How the values were obtained:
RSV-A2-GFP = RSV-A2-GFP viral replication assay; format: cell-based, Human Respiratory Syncytial Virus; conditions: read-out: RSV EC50; Calu-1 cells, RSV-A2-GFP MOI=1.2, 96 hrs, GFP-expressing cells counted
Procedure, shortened: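 Calu-1 cells in DMEM/2% FBS infected with RSV-A2 expressing GFP between P and M genes (24,000 pfu/ml, MOI=1.2), 10-point 3-fold dilutions (typical final 403 nM-0.02 nM or 40.3 nM-0.002 nM). After 96 h at 37°C, GFP-positive cells imaged; same-well CellTiter-Glo for cytotoxicity. IC50/CC50 by 4-parameter logistic fit.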

hMPV-GFP = hMPV-GFP viral replication assay; format: cell-based, human metapneumovirus; conditions: read-out: hMPV EC50; VERO cells, hMPV-GFP MOI=1.25, 48 hrs, GFP-expressing cells counted
Procedure: GFP expressing rgHMPV #3 p3 was generated in Dr. Buchholz's lab (Biacchesi S. et al., J Virol. 2007 June; 81(11): 6057-6067.) and propagated in VERO cells (kidney tissue derived from a normal, adult African green monkey. ATCC Cat #CCL-81) with infection Multiplicity of Infection (MOI) of 0.1. Virus was harvested 4 days after infection by collecting all culture material and freeze-thaw the viral culture in liquid nitrogen twice. To generating virus working stocks, thaw frozen samples in 37° C. water bath then centrifuge at 218 g for 15 min at 4° C. Add 1/10 of 10×SPG (Biological Industries 06-3061-01-5A), mix, aliquot supernatant, and quick-freeze in liquid nitrogen then transfer to −80° C. freezer for storage. Virus titer was determined by performing titration test in 96-well plates and calculate approximate virus titer using GFP event/well data.
Compound plates were prepared by dispensing compounds dissolved in DMSO into wells of 384 well coming 3985 polystyrene flat clear bottom optical imaging microplates (202.5 nL/well) using an ECHO acoustic dispenser. Each compound was tested in a 10-point serial 3-fold dilution (typical final concentrations: 40,300 nM-2 nM). […] Continuous culture of VERO cells were maintained in complete culture media (OptiMEM supplemented with 2 mM GlutaMAX™ and 100 U/ml Penicillin-Streptomycin). To set up the assay, trypsinize VERO cells with 0.25% Trypsin-EDTA until cells dislodge, then re-suspend cells with 1 mL FBS. Spin down cells at 300 g for 5 min and wash cells twice in culture media, then count cells using default parameters on ViCell. Cells were then diluted to 100,000 cells/ml (5,000 cells/50 μl) in complete culture media+TrypLE Select (80 μl/ml). Add hMPV-GFP virus to cells at 125,000 pfu/ml (MOI=1.25). Mix by gentle inversion. 10 μl/well of 100% DMSO was dispensed to CellTiter-Glo (CTG) assay Max_E controls wells. Dispense cells at 50 μl/well using Bravo and 50 μl filtered tips into compound plates. Cover plates with MicroClime lids loaded with 7.5 ml of assay media to minimize evaporation. Lightly shake plate for 10 minutes at room temperature then incubate at 37 degrees C. and 5% CO2 for 48 hrs. Following incubation, distinct, GFP-expressing cells are counted using an Acumen imaging system with appropriate settings. A same-well CTG assay is performed by adding 10 μl/well reconstituted CellTiter-Glo reagent (Promega G7573) and reading plates on PerkinElmer Envision according to manufacturer's instructions. Raw data were loaded and analyzed in ActivityBase. Antiviral IC50 and cytotoxicity CC50 values were determined using a 4 parameter logistic fit based on the Levenberg-Marquardt algorithm. Model: 205-4 Parameter Logistic.

Compound: Cn1nc(-c2cscn2)cc1C(=O)NCC(C)(O)c1cc2c(c(-c3ccc(F)cc3)n1)OCC2(C)N (single isomer, unassigned) [Example 28-D]
- EC50 (RSV-A2-GFP): 0.01 to 0.1 µM
- EC50 (hMPV-GFP): > 0.1 µM

Source: patent US20250066323A1, “INHIBITORS OF HUMAN RESPIRATORY SYNCYTIAL VIRUS AND METAPNEUMOVIRUS” (priority 2023, published 2025)
